Values of other authors, collected in patent US20100129448A1, “TOPICAL HYDROGEL COMPOSITION” (Nanotherapeutics, Inc., priority 2008, published 2010).

Compound | solubility (neutral pH) | aqueous solubility (pH greater than 6)
C[C@H]1c2cccc(O)c2C(=O)C2=C(O)[C@]3(O)C(=O)C(C(N)=O)=C(O)[C@@H](N(C)C)[C@@H]3[C@@H](O)[C@@H]21 [Doxycycline] | less than 10 mg/ml | 
C[C@H]1c2cccc(O)c2C(=O)C2=C(O)[C@]3(O)C(=O)C(C(N)=O)=C(O)[C@@H](N(C)C)[C@@H]3[C@@H](O)[C@@H]21 [Doxycycline Monohydrate] |  | less than 0.8 mg/ml
